Measurements taken from US20200281908A1, “MEANS FOR TREATING DEMENTIA OF VARIOUS ETIOLOGY” (priority 2016, published 2020).

Assays:
[1] = test system: streptozotocin-induced rat model of AD; assay: CPAR test on a streptozotocin-induced rat model of AD; assay type: in vivo; conditions: for Latent period of going into the dark chamber, Recalling, 24 hours later / Latent period of going into the dark chamber, Recalling, 7 days later / Latent period of going into the dark chamber, Recalling, 14 days later / Latent period of going into the dark chamber, Training LP1 / Number of animals with amnesia that went into the dark chamber during the CPAR recalling test/Number of animals in the group, 24 hours later / Number of animals with amnesia that went into the dark chamber during the CPAR recalling test/Number of animals in the group, 7 days later / Number of animals with amnesia that went into the dark chamber during the CPAR recalling test/Number of animals in the group, 14 days later / percentage of rats with reflex impairment (went into the dark chamber), 24 hours later / percentage of rats with reflex impairment (went into the dark chamber), 7 days later / percentage of rats with reflex impairment (went into the dark chamber), 14 days later: rats, n = 12; for Latent period of going into the dark chamber, Recalling, 24 hours later / Latent period of going into the dark chamber, Recalling, 7 days later / Latent period of going into the dark chamber, Recalling, 14 days later / Latent period of going into the dark chamber, Training LP1: M ± m
Protocol: Example 2. The aim of the study is to assess the specific pharmacological activity of the liposomal formulation of methyl 4-[2-oxo-1,2-bis[[2-(4-pyridinyl)ethyl]amino]ethyl]benzoate succinate in comparison with the pharmaceutical substance of this compound and memantine on memory loss when modelling AD using neurotoxin streptozotocin in rats.
In this study, the modelling of AD was performed using the procedure recommended in the Methodological Recommendations for the preclinical study of nootropic drugs.
According to the procedure, AD modeling was performed by introducing streptozotocin toxin into the cerebral ventricles of the rat.
The surgical neurotoxin injection into the brain was performed in anaesthetized animals (with chloral hydrate at a dose of 200 mg/kg, ip) in a stereotaxic apparatus.
First, the cranial trepanation was performed in animals according to the stereotaxic coordinates; AP (1.0), L (1.5-2). Streptozotocin at a dose of 3 mg/kg was injected bilaterally into the lateral ventricles of the brain according to the stereotaxic coordinates: AP (1.0): L (1.5-2): H (3.0). The toxin was injected at a rate of 0.1 μl per minute; the injected solution volume was 5 μl in each ventricle
The cranial trepanation of the control (sham-operated) animals was performed according to the stereotaxic coordinates: AP (1.0): L (1.5-2), and distilled water was then injected bilaterally into the lateral ventricles of the brain also according to the stereotaxic coordinates, in the same volume and at the same rate as the studied drugs.
1 hour after surgery, the intragastric administration of substances to rats started, which continued for 14 days.
The test pharmaceutical substance (Prototype) and the current liposomal formulation of this compound were administered to rats in 2 doses of 0.25 mg/kg and 1 mg/kg. Memantine at a dose of 1 mg/kg. Distilled water was administered to control animals.
The day after the last injection of substances, procedures that allow testing the training and memory of animals started.
Evaluation of the antiamnesic effect of PAM-12 in comparison with memantine was performed using the CPAR method. A detailed description of the CPAR method is given in Example 1. […] Memory loss was determined in the terms of the reduction of the latent time of the CPAR and increase in the number of animals that went into the dark chamber during reflex recalling test, compared to that of the control
The animals were randomly divided into 8 arms.
1. Intact control—distilled water, intragastrically (i.g.), 14 days-12 rats.
2. Control—sham-operated animals—distilled water, i.g. 14 days-12 rats.
3. Active control—injection of streptozotocin (STZ) 3 mg/kg into the cerebral ventricles+distilled water, i.g., 14 days-12 rats
4. Prototype 0.25 mg/kg, i.g., 14 days: the first injection 1 hour after the injection of STZ into the cerebral ventricles and then daily for 14 days-12 rats.
5. Prototype 1.0 mg/kg, i.g., 14 days: the first injection 1 hour after the injection of STZ into the cerebral ventricles and then daily for 14 days-12 rats.
6. Current liposomal formulation 0.25 mg/kg, i.g., 14 days: the first injection 1 hour after the injection of STZ into the cerebral ventricles and then daily for 14 days-12 rats
7. Current liposomal formulation 1.0 mg/kg, i.g., 14 days: the first injection 1 hour after the injection of STZ into the cerebral ventricles and then daily for 14 days-12 rats.
8. Memantine 1 mg/kg. i.g., 14 days: the first injection 1 hour after the injection of STZ into the cerebral ventricles and then daily for 14 days-12 rats.

[2] = test system: CPAR amnesia caused by MES in rats; assay: CPAR (conditioned passive avoidance reflex) amnesia caused by maximal electroshock seizure (MES); assay type: in vivo, rat; conditions: n = 10; for CPAR recalling test 24 hours later: Latent time of the reflex / CPAR training Latent time of the reflex: M ± m
Text: Example 1. The aim of the study is to assess the effect of the liposomal formulation of methyl 4-[2-oxo-1,2-bis[[2-(4-pyridinyl)ethyl]amino]ethyl]benzoate succinate on conditioned passive avoidance reflex (CPAR) amnesia caused by maximal electroshock seizure (MES) in comparison with the pharmaceutical substance of this compound and piracetam in rats.
CPAR is a basic method for studying the effects of drugs affecting memory in any manner whatsoever. When exposed to CPAR, it is possible to identify both memory improvement and its deterioration (amnesic effect). CPAR is based on the inborn hole exploratory behaviour of rodents—the tendency to hide in a limited darkened space.
The apparatus for studying the action of drugs is a dark chamber with an electrode floor. The dark chamber is connected through a square guillotine door with a hinged platform. The hinged platform is illuminated by a 60 watt lamp. The dark chamber is located oil the laboratory table, and the platform hangs above the floor at a height of 800 mm.
First, CPAR was developed in rats. Rats were placed on a lighted platform in from of the dark chamber of the apparatus with their tail toward the inlet and recorded latent time of the reflex. Then, in the dark chamber, the rat received a single 10-second pain stimulation with an electric current (0.3 mA) through the electrode floor (training)
Amnesia was invoked by MES Electric stimulus (250 V, 115-120 mA, 50 Hz, for 0.1 sec) for obtaining MES was applied to the rat through special cornal (ocular) electrodes, previously soaked in saline MES was performed directly after CPAR training.
Experimental groups. The animals were divided into 7 arms: • Arm I: control without amnesia (saline). • Arm II: control with amnesia (MES) • Arm III: Prototype 0.25 mg/kg+MES. • Arm IV: Prototype 1.0 mg/kg+MES. • Arm V: Current liposomal formulation 0.25 mg/kg+MES. • Arm VI: Current liposomal formulation 1.0 mg/kg+MES. • Arm VII: Piracetam 400 mg/kg+MES.
The prototype and the current liposomal composition were administered intragastrically. Piracetam was administered once intraperitoneally 40 minutes before the experiment

[3] = 1.0 mg/kg i.g. + STZ (memantine printed p.o.)
[4] = 400 mg/kg once intraperitoneally + MES
[5] = 0.25 mg/kg once intragastrically + MES
[6] = 1 mg/kg once intragastrically + MES

Structure (SMILES): CC12CC3CC(C)(C1)CC(N)(C3)C2 [Memantine]
- antiamnesic effect in rats of the streptozotocin-induced AD model ([1]; 1 mg/kg): pronounced antiamnesic effect
- Latent period of going into the dark chamber, Recalling, 24 hours later ([1]; 1.0 mg/kg i.g. 14 days + STZ): 166.4 ± 13.6 s
- Latent period of going into the dark chamber, Recalling, 7 days later ([1]; 1.0 mg/kg i.g. 14 days + STZ): 166.4 ± 13.6 s
- Latent period of going into the dark chamber, Recalling, 14 days later ([1]; 1.0 mg/kg i.g. 14 days + STZ): 143.5 ± 19.2 s
- Latent period of going into the dark chamber, Training LP1 ([1]; 1.0 mg/kg i.g. 14 days + STZ): 20.4 ± 3.4 s
- Number of animals with amnesia that went into the dark chamber during the CPAR recalling test/Number of animals in the group, 24 hours later [1, 3]: 1/12
- Number of animals with amnesia that went into the dark chamber during the CPAR recalling test/Number of animals in the group, 7 days later [1, 3]: 1/12
- Number of animals with amnesia that went into the dark chamber during the CPAR recalling test/Number of animals in the group, 14 days later [1, 3]: 3/12
- percentage of rats with reflex impairment (went into the dark chamber), 24 hours later [1, 3]: 8.3%
- percentage of rats with reflex impairment (went into the dark chamber), 7 days later [1, 3]: 8.3%
- percentage of rats with reflex impairment (went into the dark chamber), 14 days later [1, 3]: 25%
- number of rats who forgot about the pain stimulation, times less compared to Active Control group ([1]; 1 mg/kg, 24 hours after the CPAR training): 5 times
- number of rats who forgot about the pain stimulation, times less compared to Active Control group ([1]; 1 mg/kg, 7 days after the CPAR training): 7 times
- latent period longer than in the Active control group ([1]; 1 mg/kg, 7 days later): 1.5 times
- number of rats who forgot about the pain stimulation, times less compared to Active Control group ([1]; 1 mg/kg, 14 days after the CPAR training): 2.7 times
- latent period longer than in the Active control group ([1]; 1 mg/kg, 14 days later): 1.9 times

Structure (SMILES): NC(=O)CN1CCCC1=O [Piracetam]
- CPAR recalling test 24 hours later: Latent time of the reflex [2, 4]: 97.17 ± 21.43 s
- CPAR training Latent time of the reflex [2, 4]: 19.11 ± 5.28 s
- CPAR recalling test 24 hours later: Number of animals that did not go into the dark chamber, % [2, 4]: 50%

Structure (SMILES): COC(=O)c1ccc(C(NCCc2ccncc2)C(=O)NCCc2ccncc2)cc1.O=C(O)CCC(=O)O (stereo not shown) [Prototype, methyl 4-[2-oxo-1,2-bis[[2-(4-pyridinyl)ethyl]amino]ethyl]benzoate succinate]
- Latent period of going into the dark chamber, Recalling, 24 hours later ([1]; 0.25 mg/kg i.g. 14 days + STZ): 133.1 ± 13.3 s
- Latent period of going into the dark chamber, Recalling, 7 days later ([1]; 0.25 mg/kg i.g. 14 days + STZ): 121.3 ± 17.8 s
- Latent period of going into the dark chamber, Recalling, 14 days later ([1]; 0.25 mg/kg i.g. 14 days + STZ): 102.8 ± 19.4 s
- Latent period of going into the dark chamber, Training LP1 ([1]; 0.25 mg/kg i.g. 14 days + STZ): 24.3 ± 5.1 s
- Number of animals with amnesia that went into the dark chamber during the CPAR recalling test/Number of animals in the group, 24 hours later ([1]; 0.25 mg/kg i.g. + STZ): 4/12
- Number of animals with amnesia that went into the dark chamber during the CPAR recalling test/Number of animals in the group, 7 days later ([1]; 0.25 mg/kg i.g. + STZ): 5/12
- Number of animals with amnesia that went into the dark chamber during the CPAR recalling test/Number of animals in the group, 14 days later ([1]; 0.25 mg/kg i.g. + STZ): 6/12
- percentage of rats with reflex impairment (went into the dark chamber), 24 hours later ([1]; 0.25 mg/kg i.g. + STZ): 33.3%
- percentage of rats with reflex impairment (went into the dark chamber), 7 days later ([1]; 0.25 mg/kg i.g. + STZ): 41.7%
- percentage of rats with reflex impairment (went into the dark chamber), 14 days later ([1]; 0.25 mg/kg i.g. + STZ): 50%
- Latent period of going into the dark chamber, Recalling, 24 hours later ([1]; 1.0 mg/kg i.g. 14 days + STZ): 147.7 ± 16.2 s
- Latent period of going into the dark chamber, Recalling, 7 days later ([1]; 1.0 mg/kg i.g. 14 days + STZ): 132.3 ± 2.8 s
- Latent period of going into the dark chamber, Recalling, 14 days later ([1]; 1.0 mg/kg i.g. 14 days + STZ): 124.9 ± 20.3 s
- Latent period of going into the dark chamber, Training LP1 ([1]; 1.0 mg/kg i.g. 14 days + STZ): 30.1 ± 12.1 s
- Number of animals with amnesia that went into the dark chamber during the CPAR recalling test/Number of animals in the group, 24 hours later [1, 3]: 3/12
- Number of animals with amnesia that went into the dark chamber during the CPAR recalling test/Number of animals in the group, 7 days later [1, 3]: 4/12
- Number of animals with amnesia that went into the dark chamber during the CPAR recalling test/Number of animals in the group, 14 days later [1, 3]: 5/12
- percentage of rats with reflex impairment (went into the dark chamber), 24 hours later [1, 3]: 25%
- percentage of rats with reflex impairment (went into the dark chamber), 7 days later [1, 3]: 33.3%
- percentage of rats with reflex impairment (went into the dark chamber), 14 days later [1, 3]: 41.7%
- CPAR recalling test 24 hours later: Latent time of the reflex [2, 5]: 107.86 ± 15.12 s
- CPAR training Latent time of the reflex [2, 5]: 20.38 ± 4.38 s
- CPAR recalling test 24 hours later: Latent time of the reflex [2, 6]: 118.13 ± 17.26 s
- CPAR training Latent time of the reflex [2, 6]: 13.29 ± 2.78 s
